According to patent publication US20080076926A1, “Process for the preparation of 4-hydroxythieno[2,3-b]pyridine-5-carbonitriles” (priority 2006, published 2008):

**Q.** With `N#Cc1cnc2sc(Br)cc2c1O` [Example 30, 2-bromo-4-hydroxythieno[2,3-b]pyridine-5-carbonitrile] as the compound, how does the melting point read?
**A.** > 255 °C

**Q.** For `Cc1cc2c(Cl)c(C#N)cnc2s1` [Example 10, 4-chloro-2-methylthieno[2,3-b]pyridine-5-carbonitrile], which melting point is on record?
**A.** 110 to 112 °C

**Q.** For `N#Cc1cnc2sc(-c3ccccc3)cc2c1Cl` [Example 16, 4-chloro-2-phenylthieno[2,3-b]pyridine-5-carbonitrile], which melting point is on record?
**A.** 202 to 204 °C

**Q.** With `Cc1csc2[nH]cc(C#N)c(=O)c12` [Example 3, 3-methyl-4-oxo-4,7-dihydrothieno[2,3-b]pyridine-5-carbonitrile] as the compound, how does the melting point read?
**A.** 285 °C

**Q.** For `CC(C)c1c(I)sc2ncc(C#N)c(Cl)c12` [Example 8, 4-chloro-2-iodo-3-isopropylthieno[2,3-b]pyridine-5-carbonitrile], which melting point is on record?
**A.** 177 to 179 °C
